27 molecules from patent US10822345B2 (4SC AG, priority 2015, dated 2020) can be followed below.

One experiment concerns the target Kv1.3 (Homo sapiens (Human), UniProt P22001). Kind of experiment: Patch-clamp assay for inhibitory activity on Kv1.3 (whole cell recording). The class given is cell-based. The following applies: n≥2 per concentration, three or more concentrations. As for the experimental part: Patch-Clamp Assay for Inhibitory Activity on Kv1.3
For a description of a Kv1.3 patch-clamp assay, see Grissmer et al., Mol. Pharmacol. 1994, 45, 1227; whole cell patch-clamp recording was performed with n≥2 individual experiments at each compound concentration using different cells. Three or more different concentrations were determined per dose response curve.
For orientation: In patch-clamp work, channel activity is measured electrically.

The next experiment deals with female Dark Agouti rats. Kind of experiment: Pristane-induced arthritis (PIA) model. The class given is in vivo, rat. The settings on record: MTX 0.05 mg/kg i.p., sid, DAY16 to DAY30; maximum AI=16; controls AI around 14; p=0.001. As for the experimental part: Pristane-Induced Arthritis (PIA) Model
Arthritis was induced in female Dark Agouti rats by intradermal injection of 150 μL/rat pristane into the base of the tail on DAY0, according to Vingsbo et al., Am. J. Pathol. 1996, 149, 1675. Compound treatment was started on DAY16 and continued until DAY30, dosing Example 53 at 60 mg/kg, p.o., sid, and Example 34 at 45 mg/kg, p.o., bid, each in a lipophilic formulation. As a positive control, methotrexate (MTX) was dosed i.p., sid, with 0.05 mg/kg, also starting DAY16. Arthritis development was monitored daily by a macroscopic scoring system for the four limbs ranging from 0 to 4 (0=no visible effects of arthritis; 1=edema and/or erythema of one digit; 2=edema and/or erythema of two joints; 3=edema and/or erythema of more than two joints; 4=severe arthritis of the entire paw and digits, associated with ankylosis and deformity of the paw.), resulting in an Arthritic Index (AI) reflecting the sum of scores of all 4 limbs per rat (maximum AI=16).
Disease induction in saline-treated and vehicle-treated control animals reached a maximum of AI around 14.

Each structure is given as a SMILES string.

Kv1.3, sequence (P22001 whole entry): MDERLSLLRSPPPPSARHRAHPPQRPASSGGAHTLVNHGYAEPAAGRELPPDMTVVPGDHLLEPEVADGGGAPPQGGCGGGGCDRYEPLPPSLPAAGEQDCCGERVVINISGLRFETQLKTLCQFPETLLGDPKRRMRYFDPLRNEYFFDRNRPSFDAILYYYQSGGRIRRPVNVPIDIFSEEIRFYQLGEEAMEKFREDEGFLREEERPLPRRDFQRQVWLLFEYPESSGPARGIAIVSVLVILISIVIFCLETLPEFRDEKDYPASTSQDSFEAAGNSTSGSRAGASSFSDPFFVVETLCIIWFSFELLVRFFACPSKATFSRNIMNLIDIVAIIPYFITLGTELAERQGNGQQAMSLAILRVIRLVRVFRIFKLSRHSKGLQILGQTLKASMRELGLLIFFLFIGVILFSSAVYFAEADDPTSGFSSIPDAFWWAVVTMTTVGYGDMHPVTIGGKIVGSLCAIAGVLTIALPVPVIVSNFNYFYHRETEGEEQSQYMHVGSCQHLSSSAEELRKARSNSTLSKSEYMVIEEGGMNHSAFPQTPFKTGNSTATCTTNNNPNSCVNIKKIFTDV

One may read the IC50 as the concentration that gives 50% inhibition. Lower therefore signals higher potency. `COc1ccccc1-c1c(C)c(=O)oc2c(C)c3occ(C)c3cc12` [Example 7, 5-(2-methoxyphenyl)-3,6,9-trimethyl-7H-furo[3,2-g]chromen-7-one]: the IC50 at Kv1.3 is no more than 500 nM.
On the same count and under the same terms, with `Cc1c(-c2ccccc2)c2cc3c(C)csc3c(C)c2oc1=O` [Example 43, 3,6,9-trimethyl-4-phenyl-2H-thieno[3,2-g]chromen-2-one] the figure was no more than 500 nM; with `Cc1c(-c2ccccc2Cl)c2cc3c(C)coc3c(C)c2n(C)c1=O` [Example 60, 5-(2-chlorophenyl)-3,6,8,9-tetramethylfuro[3,2-g]quinolin-7(8H)-one], no more than 500 nM.
`Cc1c(-c2ccccc2F)c2cc3c(C)coc3c(C)c2oc1=O` [Example 5, 5-(2-fluorophenyl)-3,6,9-trimethyl-7H-furo[3,2-g]chromen-7-one]: the IC50 on Kv1.3 is no more than 500 nM.
The molecule `Cc1coc2c(C)c3[nH]c(=O)c(Br)c(-c4ccccc4)c3cc12` [Example 26, 6-bromo-3,9-dimethyl-5-phenylfuro[3,2-g]quinolin-7(8H)-one] displayed a half-inhibitory concentration (IC50) against Kv1.3 of no more than 500 nM.
`Cc1c(-c2ccccc2)c2cc3c(C)c(C#N)oc3c(C)c2oc1=O` [Example 45]: the IC50 against Kv1.3 is 1500 to 3000 nM.
The same measure, in the same setting: with `Cc1c(-c2ccccc2Cl)c2cc3c(C)coc3c(C)c2oc1=O` [Example 11, 5-(2-chlorophenyl)-3,6,9-trimethyl-7H-furo[3,2-g]chromen-7-one] the figure was no more than 500 nM.
`Cc1c(-c2ccccc2)c2cc3c(C)coc3c(C)c2[nH]c1=O` [Example 31, 3,6,9-trimethyl-5-phenylfuro[3,2-g]quinolin-7(8H)-one]: at Kv1.3, the IC50 is no more than 500 nM.
Consider `Cc1c(-c2ccccc2)c2cc3c(C)coc3c(C)c2n(C)c1=O` [Example 34, 3,6,8,9-tetramethyl-5-phenylfuro[3,2-g]quinolin-7(8H)-one], for which the IC50 at Kv1.3 is no more than 500 nM.
In turn, `Cc1c(-c2ccccc2F)c2cc3c(C)coc3c(C)c2n(C)c1=O` [Example 61, 5-(2-fluorophenyl)-3,6,8,9-tetramethylfuro[3,2-g]quinolin-7(8H)-one] gave an IC50 on Kv1.3 of no more than 500 nM.
In turn, `Cc1c(-c2ccccc2)c2cc3c(C)noc3c(C)c2[nH]c1=O` [Example 36, 3,6,9-trimethyl-5-phenylisoxazolo[4,5-g]quinolin-7(8H)-one] showed an IC50 against Kv1.3 of no more than 500 nM.
`COc1ccccc1-c1cc(=O)oc2c(C)c3occ(C)c3cc12` [Example 1, 5-(2-methoxyphenyl)-3,9-dimethyl-7H-furo[3,2-g]chromen-7-one]: the IC50 on Kv1.3 is no more than 500 nM.
Molecule `Cc1c(-c2ccccc2)c2cc3c(C)coc3nc2n(C)c1=O` [Example 49, 3,6,8-trimethyl-5-phenylfuro[2,3-b][1.8]naphthyridin-7(8H)-one] returned an IC50 against Kv1.3 of no more than 500 nM.
Same read-out and setting: with `Cc1c(-c2cccnc2)c2cc3c(C)coc3c(C)c2[nH]c1=O` [Example 54, 3,6,9-trimethyl-5-(pyridin-3-yl)furo[3,2-g]quinolin-7(8H)-one] the figure was no more than 500 nM.
On to `Cc1coc2c(C)c3[nH]c(=O)c(Br)c(-c4ccccc4F)c3cc12` [Example 27, 6-bromo-5-(2-fluorophenyl)-3,9-dimethylfuro[3,2-g]quinolin-7(8H)-one], for which the IC50 against Kv1.3 is 501 to 1500 nM.
As for `Cc1c(-c2cccnc2)c2cc3c(C)coc3c(C)c2oc1=O` [Example 53, 3,6,9-trimethyl-5-(pyridin-3-yl)-7H-furo[3,2-g]chromen-7-one], the IC50 at Kv1.3 was no more than 500 nM.
On Kv1.3, `Cc1c2oc(=O)cc(-c3ccccc3)c2cc2c(C3CC3)coc12` [Example 41, 3-cyclopropyl-9-methyl-5-phenyl-7H-furo[3,2-g]chromen-7-one] came in with a 50% inhibitory concentration (IC50) of no more than 500 nM.
At Kv1.3, `CCc1coc2c(C)c3oc(=O)c(C)c(-c4ccccc4)c3cc12` [Example 16, 3-ethyl-6,9-dimethyl-5-phenyl-7H-furo[3,2-g]chromen-7-one] displayed an IC50 of no more than 500 nM.
Molecule `Cc1coc2c(C)c3c(cc12)c(-c1ccccc1)c(Br)c(=O)n3C` [Example 33, 6-bromo-3,8,9-trimethyl-5-phenylfuro[3,2-g]quinolin-7(8H)-one] showed an IC50 at Kv1.3 of no more than 500 nM.
In turn, `Cc1c(-c2ccccc2Cl)c2cc3c(C)coc3c(C)c2[nH]c1=O` [Example 40, 5-(2-chlorophenyl)-3,6,9-trimethylfuro[3,2-g]quinolin-7(8H)-one] had an IC50 against Kv1.3 of no more than 500 nM.
On to `CN(Cc1cnc2nc(N)nc(N)c2n1)c1ccc(C(=O)N[C@@H](CCC(=O)O)C(=O)O)cc1` [MTX, methotrexate], for which the “Arthritic Index (AI)” value with female Dark Agouti rats is roughly 8.7.
On to `Cc1c(-c2ccccc2F)c2cc3c(C)coc3c(C)c2[nH]c1=O` [Example 30, 5-(2-fluorophenyl)-3,6,9-trimethylfuro[3,2-g]quinolin-7(8H)-one], for which the 50% inhibitory concentration (IC50) on Kv1.3 was no more than 500 nM.
Take `Cc1c(-c2ccccc2)c2cc3c(C)coc3nc2oc1=O` [Example 25, 3,6-dimethyl-5-phenyl-7H-furo[2,3-b]pyrano[3,2-e]pyridin-7-one]: on Kv1.3, the half-maximal inhibitory concentration (IC50) was no more than 500 nM.
Take `COc1ncccc1-c1c(C)c(=O)oc2c(C)c3occ(C)c3cc12` [Example 62, 5-(2-methoxypyridin-3-yl)-3,6,9-trimethyl-7H-furo[3,2-g]chromen-7-one]: the IC50 against Kv1.3 is 501 to 1500 nM.
In turn, `Cc1coc2c(C)c3oc(=O)cc(-c4ccccc4F)c3cc12` [Example 8, 5-(2-fluorophenyl)-3,9-dimethyl-7H-furo[3,2-g]chromen-7-one] gave an IC50 on Kv1.3 of no more than 500 nM.
At Kv1.3, `CCOc1ccccc1-c1c(C)c(=O)oc2c(C)c3occ(C)c3cc12` [Example 10, 5-(2-ethoxyphenyl)-3,6,9-trimethyl-7H-furo[3,2-g]chromen-7-one] displayed an IC50 of no more than 500 nM.
Regarding `Cc1c(-c2ccccc2)c2cc3c(C)coc3c(C)c2oc1=O` [Example 9, 3,6,9-trimethyl-5-phenyl-7H-furo[3,2-g]chromen-7-one], the IC50 on Kv1.3 is no more than 500 nM.
